Reference: patent publication US7034005B2, “Use of agent for suppressing infection and proliferation of human immunodeficiency syndrome virus” (The Kitasato Institute, priority 2002, dated 2006)
Entries after “also recorded” stand apart in the source; their conditions may differ.

Test system: HIV-1BAL strain in M type macrophage (M-MΦ) derived from human monocytes
Assay: Proliferation of HIV-1 in M-MΦ: p24 protein in culture supernatant by sandwich ELISA
Format: cell-based
Conditions: HIV-1BAL; for viral production in M-MΦ at 30 μM: incubated for 10 days (FIGS. 21-25); for production of p24 protein in M-MΦ at various concentrations: incubated for 10 days, compared with DMSO (FIGS. 21-25); for p24 protein / viral proliferation in M-MΦ with kinase inhibitor: 10 μM, up to day 14, compared with control group (FIG. 20)
Procedure: Macrophages derived from monocytes were prepared by culturing the recovered monocytes in the presence of M-CSF (macrophage colony-stimulating factor) (10^4 U/ml, provided by Morinaga Milk Co.), granulocytes and granulocyte-macrophage colony-stimulating factor, GM-CSF) (500 U/ml, provided by Japan Scheling Plough Co., Osaka, or purchased from R & S Genzyme-TECHNE Inc.) with RPMI1640 medium added with FCS10% (Nissui Seiyaku Co., Tokyo) for 7–8 days.
The macrophage prepared by differential induction of M-CSF from human monocytes is designated as M type macrophage (M type MΦ or M-MΦ) and the macrophage prepared by differential induction of GM-CSF from human monocytes is designated as GM type macrophage (GM type MΦ or GM-MΦ) Further, alveolar macrophage (alveolar MΦ or A-MΦ) was prepared as follows. Cells in the alveolar lavage liquid obtained from the alveolar lavage of healthy volunteers were recovered, suspended and adhered to plastics, then the non-adhered cells were washed out and the remained adhered cells were designated as the alveolar MΦ.
Infection of HIV-1 to macrophage was performed as follows. Macrophage directed viral strains, HIV-1JR-FL and HIV-1BAL, were infected for 2 hours in contact with M-MΦ, GM-MΦ and A-MΦ (adjusted to 2.5×10^5/well, Flacon No3043: Becton Dickinson Labware, Inc. U.S.)at low concentration (p24 antigen titer 50 ng/ml, TCID50=3000/ml virus to final concentration at 100 pg/ml), and non-adsorbed virus to the macrophage was washed out, and cultured with adding fresh medium. In case of the medium with M-MΦ, M-CSF was added (10^4 U/ml), and that of the medium with GM-MΦ, GM-CSF was added (500 U/ml).
Proliferation of virus was examined with the released viral particles in the culture supernatant after the infection by the sandwich ELISA using two types of anti-p24 antibody (Nu24 and 10B5^13). The following JAM62 and JAM65 were used as LTR (HIV long terminal repeat)-gap gene primer. The following JAM63 and JAM 64 were used as the internal primer for the nested PCR. • JAM62: • 5′-[…]-3′ (SEQ ID NO: 1) • JAM65: • 5′-[…]-3′ (SEQ ID NO: 2) • JAM63: • 5′-GTGTOACTCTGGTAACTAGAGATCC-3′ (SEQ ID NO: 3) • JAM64: • 5′-[…]-3′ (SEQ ID NO: 4) (1-4) Assay of Expression of Tyrosine Kinase Hck Protein and Transcription Factor C/EBPβ Protein
In order to show growth suppression effect of the present invention, among macrolide derivatives, EM, EM201, EM202, EM703, CAM, EM722, EM730, EM732, EM736, EM734, EM735, EM747, EM748, EM743, EM746, EM750 or EM751 was dissolved in DMSO with each 100 mM concentration, and used in dilution with the medium thereafter. A control group was M-MΦ treated only with DMSO used for dissolving macrolide derivatives.
M-MΦ and GM-M Φ were subjected to contact infection with HIV-1BAL strain for 2 hours, added 30 μM of EM, EM201, EM202, EM703, CAM,EM722, EM730, EM732, EM736, EM734, EM735, EM747, EM748, EM743, EM746, EM750 or EM751, incubated for 14 days and amount of p24 protein in the cultured supernatant was assayed in the time-dependent manner.

Compound | viral production in M-MΦ at 30 μM | production of p24 protein in M-MΦ at various concentrations | p24 protein / viral proliferation in M-MΦ with kinase inhibitor
de(3′-dimethylamino)-3′-[hexahydro-1(1H)-azepinyl]-8,9-anhydro-pseudoerythromycin A 6,9-hemiketal [EM748] | inhibit almost completely viral production; also recorded: almost complete inhibition | suppressed depending on the concentration of agent | 
CCCNC1CC(C)OC(OC2C(C)C(OC3CC(C)(OC)C(O)C(C)O3)C(C)C(=O)OC(C(C)(O)C(O)CC)C(C)C3=C(C)CC2(C)O3)C1O (stereo not shown) [EM730, bis-de(3′-N-methyl)-3′-N-propyl-8,9-anhydro-pseudo-erythromycin A 6,9-hemiketal] | inhibit almost completely viral production; also recorded: almost complete inhibition | suppressed depending on the concentration of agent | 
bis-de(3′-N-methyl)-3′-N-benzyl-8,9-anhydro-pseudo-erythromycin A 6,9-hemiketal [EM732] | inhibit almost completely viral production; also recorded: almost complete inhibition | suppressed depending on the concentration of agent | 
C[S+]([O-])c1ccc(-c2nc(-c3ccc(F)cc3)c(-c3ccncc3)[nH]2)cc1 (stereo not shown) [SB203580, 4-[4-fluoro-phenyl]-2-[4-methylsulfinylphenyl]-5-[4-pyridyl]-1H-imidazole, reference compound] |  |  | no p24 protein was almost detected even on day 14
CC[C@@H](O)[C@@](C)(O)[C@@H]1OC(=O)[C@H](C)[C@@H](O[C@H]2C[C@@](C)(OC)[C@@H](O)[C@H](C)O2)[C@H](C)[C@@H](O[C@@H]2O[C@H](C)C[C@H](N3CCCC3)[C@H]2O)[C@@]2(C)CC(C)=C(O2)[C@@H]1C [EM735, de(3′-dimethylamino)-3′-pyrrolidino-8,9-anhydro-pseudoerythromycin A 6,9-hemiketal] | inhibit almost completely viral production; also recorded: almost complete inhibition | suppressed depending on the concentration of agent | 
CC[C@@H](O)[C@@](C)(O)[C@@H]1OC(=O)[C@H](C)[C@@H](O[C@H]2C[C@@](C)(OC)[C@@H](O)[C@H](C)O2)[C@H](C)[C@@H](O[C@@H]2O[C@H](C)C[C@H](NC(C)C)[C@H]2O)[C@@]2(C)CC(C)=C(O2)[C@@H]1C [EM736, bis-de(3′-N-methyl)-3′-N-(2-propyl)-8,9-anhydro-pseudoerythromycin A 6,9-hemiketal] | inhibit almost completely viral production; also recorded: almost complete inhibition | suppressed depending on the concentration of agent | 
de[12-(1-hydroxypropyl)]-8,9-anhydro-pseudo-erythromycin A 6,9-hemiketal [EM746] | inhibit almost completely viral production; also recorded: almost complete inhibition | suppressed depending on the concentration of agent | 
CCC(O)C(C)(O)C1OC(=O)C(C)C(O)C(C)C(OC2OC(C)CC(NC)C2O)C2(C)CC(C)=C(O2)C1C (stereo not shown) [EM754, de(3-O-cladinosyl)-de(3′-N-methyl)-8,9-anhydro-pseudoerythromycin A 6,9-hemiketal] | inhibit almost completely viral production; also recorded: almost complete inhibition | suppressed depending on the concentration of agent | 
COc1cccc(-c2cc(=O)c3ccccc3o2)c1N [PD98059, 2-[2-amino-3-methoxyphenyl]-4H-1-benzopyran-4-one, reference compound] |  |  | amount of p24 protein was not different in the control group
COC1(C)CC(OC2C(C)C(=O)OC(C(C)N)C(C)C3=C(C)CC(C)(O3)C(OC3OC(C)CC(N(C)C)C3O)C2C)OC(C)C1O (stereo not shown) [EM750, de(12-hydroxy)-de[12-(1-hydroxypropyl)]-12-amino-8,9-anhydro-pseudoerythromycin A 6,9-hemiketal] | inhibit almost completely viral production; also recorded: almost complete inhibition | suppressed depending on the concentration of agent | 
bis-de(3′-N-methyl)-3′-N-ethyl-8,9-anhydro-pseudo-erythromycin A 6,9-hemiketal [EM722] | inhibit almost completely viral production; also recorded: almost complete inhibition | suppressed depending on the concentration of agent | 
CC[C@@H](O)[C@@](C)(O)[C@@H]1OC(=O)[C@H](C)[C@@H](O[C@H]2C[C@@](C)(OC)[C@@H](O)[C@H](C)O2)[C@H](C)[C@@H](O[C@@H]2O[C@H](C)C[C@H](N3CCOCC3)[C@H]2O)[C@@]2(C)CC(C)=C(O2)[C@@H]1C [EM747, de(3′-dimethylamino)-3′-morpholino-8,9-anhydro-pseudoerythromycin A 6,9-hemiketal] | inhibit almost completely viral production; also recorded: almost complete inhibition | suppressed depending on the concentration of agent | 
COC1(C)CC(OC2C(C)C(=O)OC(C(C)=NO)C(C)C3=C(C)CC(C)(O3)C(OC3OC(C)CC(N(C)C)C3O)C2C)OC(C)C1O (stereo not shown) [EM743, de(12-hydroxy)-de[12-(1-hydroxypropyl)]-12-hydroxy-oxime-8,9-anhydro-pseudoerythromycin A 6,9-hemiketal] | inhibit almost completely viral production; also recorded: almost complete inhibition | suppressed depending on the concentration of agent | 
CN[C@H]1C[C@@H](C)O[C@@H](O[C@@H]2[C@@H](C)[C@H](O[C@H]3C[C@@](C)(OC)[C@@H](O)[C@H](C)O3)[C@@H](C)C(=O)O[C@@H](C(C)O)[C@@H](C)C3=C(C)C[C@@]2(C)O3)[C@@H]1O (stereo partly shown) [EM751, de(3′-N-methyl)-de[12-(1-hydroxypropyl)]-8,9-anhydro-pseudoerythromycin A 6,9-hemiketal] | inhibit almost completely viral production; also recorded: almost complete inhibition | suppressed depending on the concentration of agent | 
CC[C@@H](O)[C@@](C)(O)[C@@H]1OC(=O)[C@H](C)[C@@H](O[C@H]2C[C@@](C)(OC)[C@@H](O)[C@H](C)O2)[C@H](C)[C@@H](O[C@@H]2O[C@H](C)C[C@H](N3CCCCC3)[C@H]2O)[C@@]2(C)CC(C)=C(O2)[C@@H]1C [EM734, de(3′-dimethylamino)-3′-piperidino-8,9-anhydro-pseudoerythromycin A 6,9-hemiketal] | inhibit almost completely viral production; also recorded: almost complete inhibition | suppressed depending on the concentration of agent | 
